Laboratory results taken from patent US6921749B1, “Polypeptides derived from endostatin exhibiting antiangiogenic activity” (Universita' Degli Studi di Milano, priority 1999, dated 2005).
Where no end group is shown, it is not given here. The star is where a group is joined. tBu = CC(C)(C)*

Tests used:
[1] = tested on: coronary venular endothelial cells (CVEC); assay: Proliferation studies (total cell number), postcapillary venule endothelial cells; assay type: cell-based, bovine; settings: 10 to 1000 ng/ml, 48 hr, FGF-2 and VEGF 20 ng/ml each
Text: The coronary venular endothelial cells (CVEC) were isolated and cultured as previously described (8).
Cell proliferation was quantified by total cell number as reported (12,13).
Cell proliferation was quantified by counting the total number of cells after 48 hr treatment. Endothelial cells isolated from postcapillary venules were used to test the effect on angiogenesis. […] The effect was more pronounced on FGF-2-induced growth. […] Similar effects were obtained on all the endothelial cell lines tested (FIG. 1E).
C-E: Effect of endostatin fragments on endothelial cell proliferation. Endothelial cell (C,D: CVEC; E, MAE) proliferation was stimulated with FGF-2 and VEGF (20 ng/ml each). Data are expressed as number of cells counted/well after 48 hr incubation with test substances. Numbers are means±SEM of 6 and 2 experiments run in triplicate for CVEC and ME, respectively.

mouse aorta rings = assay: Vascular sprouting in vitro in three-dimensional fibrin gels; assay type: cell-based; settings: vascular rings in 3D fibrin gels, day 3
Protocol: Vascular sprouting from mouse aorta rings was assessed in three-dimensional fibrin gels preparations according to the method described by Brown et al (15), with minor modifications. Quantitative evaluation of newly formed structures was carried out at day 3. The area covered by vascular sprouts was quantified in microscopic units (0.21 mm^2).
The formation of capillary-like structures in vascular rings cultured in 3D fibrin gels was used to test angiogenesis in vitro. Fragment I and IV inhibited the spontaneous growth of capillaries and the one induced by FGF-2 and VEGF. As an example the effect of 100 ng/ml concentration of either fragment is shown (FIG. 3A).
FIG. 3: Effect of endostatin fragments on angiogenesis in vitro (A) and in vivo (B). A. In vitro vessel sprouting from rings of mouse aortas was induced by FGF-2 (10 ng/ml). Fragments I and IV were used at […]. Data are reported as mean area occupied by tubules-like structures after 3 days from stimulation. Numbers are means of one representative experiment out of two run in triplicate.

endothelial cells = assay: In vitro inhibition test on endothelial cells proliferation and migration; assay type: cell-based
Text: These polypeptides have remarkable antiangiogenic activity in the in vitro inhibition test on endothelial cells proliferation and migration (16).

[2] = tested on: microvascular endothelial cells; settings: E. coli expressed protein; cited from earlier work

Row | Substance | cell growth induced by FGF-2 and VEGF [1] | growth of capillaries induced by FGF-2 and VEGF (mouse aorta rings) | spontaneous growth of capillaries (mouse aorta rings) | potency compared with endostatin (endothelial cells) | FGF-2 and VEGF induced proliferation and migration [2]
1 | Cys-Glu-Thr-Trp-Arg-Thr-Glu-Thr-Thr-Gly-Ala-Thr-Gly-Gln-Ala-Ser-Ser-Leu-Leu-Ser-Gly-Arg-Leu-Leu-Glu-Gln-Lys-Ala-Ala-Ser-Cys-His-Asn-Ser-Tyr-Ile-Val-Leu-Cys(tBu)-Ile-Glu-Asn-Ser-Phe-Met-Thr-Ser-Phe-Ser-Lys (CETWRTETTGATGQASSLLSGRLLEQKAASCHNSYIVLC(tBu)IENSFMTSFSK; cysteine pairing not given here) [Fragment IV] | most potent | inhibited | inhibited | – | –
2 | His-Thr-His-Gln-Asp-Phe-Gln-Pro-Val-Leu-His-Leu-Val-Ala-Leu-Asn-Thr-Pro-Leu-Ser-Gly-Gly-Met-Arg-Gly-Ile-Arg-Gly-Ala-Asp-Phe-Gln-Cys(tBu)-Phe-Gln-Gln-Ala-Arg-Ala (HTHQDFQPVLHLVALNTPLSGGMRGIRGADFQC(tBu)FQQARA) [Fragment I] | – | inhibited | inhibited | equipotential to endostatin | –
3 | endostatin | – | – | – | – | able to block
